Results from patent US20230398130A1, “METHODS AND COMPOSITIONS FOR DIFFERENTIATING STEM CELLS” (Massachusetts Institute of Technology, priority 2020, published 2023).

Assays:
ISC-enriched organoids [1] = experiment: Primary screen, 384-well 2.5-D organoid differentiation (ENR+CD, 6 days): basal lysozyme secretion (LYZ.NS); type: cell-based, murine; details: primary screen; for Dose.FC.LYZ.NS: FC vs plate median; for SSMD.LYZ.NS: strictly standardized mean difference
Text: (§1) High-throughput screening.

ISC-enriched organoids [2] = experiment: Primary screen, 384-well 2.5-D organoid differentiation (ENR+CD, 6 days): carbachol-induced lysozyme secretion (LYZ.S); type: cell-based, murine; details: primary screen; for Dose.FC.LYZ.S: FC vs plate median; for Z.LYZ.S: standard z score; for SSMD.LYZ.S: strictly standardized mean difference
Text: as §1

ISC-enriched organoids [3] = experiment: Primary screen, 384-well 2.5-D organoid differentiation (ENR+CD, 6 days, Target Selective Inhibitor Library, vs whole-plate median): ATP (CellTiter-Glo 3D, CTG); details: primary screen; for Dose.FC.CTG: FC vs plate median; for SSMD.CTG: strictly standardized mean difference
[4] = Dose 10.00 uM, standard z score
[5] = 1st of the 4 dose lines of the treatment (dose not given)
[6] = 2nd of the 4 dose lines of the treatment (dose not given)
[7] = 3rd of the 4 dose lines of the treatment (dose not given)
[8] = 4th of the 4 dose lines of the treatment (dose not given)
[9] = dose 0.08 uM, standard z score of FC
[10] = dose 0.40 uM, standard z score of FC
[11] = dose 2.00 uM, standard z score of FC
[12] = dose 10.00 uM, standard z score of FC

Compound	Dose.FC.LYZ.NS (ISC-enriched organoids [1]; Dose 0.08 uM) [log 2 fold change]	Z.LYZ.NS (ISC-enriched organoids [1]; Dose 0.08 uM, standard z score)	Dose.FC.LYZ.NS (ISC-enriched organoids [1]; Dose 0.40 uM) [log 2 fold change]	Z.LYZ.NS (ISC-enriched organoids [1]; Dose 0.40 uM, standard z score)	Dose.FC.LYZ.NS (ISC-enriched organoids [1]; Dose 2.00 uM) [log 2 fold change]	Z.LYZ.NS (ISC-enriched organoids [1]; Dose 2.00 uM, standard z score)	Dose.FC.LYZ.NS (ISC-enriched organoids [1]; Dose 10.00 uM) [log 2 fold change]	Z.LYZ.NS (ISC-enriched organoids [1]; [4])	Dose.FC.LYZ.S (ISC-enriched organoids [2]; Dose 0.08 uM) [log 2 fold change]	Dose.FC.LYZ.S (ISC-enriched organoids [2]; Dose 0.40 uM) [log 2 fold change]	Dose.FC.LYZ.S (ISC-enriched organoids [2]; Dose 2.00 uM) [log 2 fold change]	Dose.FC.LYZ.S (ISC-enriched organoids [2]; Dose 10.00 uM) [log 2 fold change]	Dose.FC.CTG (ISC-enriched organoids [3]; Dose 0.08 uM) [log 2 fold change]	Z.CTG (ISC-enriched organoids [3]; Dose 0.08 uM, standard z score)	Dose.FC.CTG (ISC-enriched organoids [3]; Dose 0.40 uM) [log 2 fold change]	Z.CTG (ISC-enriched organoids [3]; Dose 0.40 uM, standard z score)	Dose.FC.CTG (ISC-enriched organoids [3]; Dose 2.00 uM) [log 2 fold change]	Z.CTG (ISC-enriched organoids [3]; Dose 2.00 uM, standard z score)	Dose.FC.CTG (ISC-enriched organoids [3]; Dose 10.00 uM) [log 2 fold change]	Z.CTG (ISC-enriched organoids [3]; [4])	also measured
CC(C)c1ccc(NC(=O)Cn2cnc3c2c(=O)n(C)c(=O)n3C)cc1 [HC-030031]	0.063	0.547	0.033	0.291	−0.007	−0.057	−0.047	−0.411	0.090	0.097	−0.035	0.077	0.082	0.195	0.191	0.457	−0.008	−0.019	−0.241	−0.575	SSMD.LYZ.NS (ISC-enriched organoids [1]; [5]): 0.506; SSMD.LYZ.NS (ISC-enriched organoids [1]; [6]): 0.276; SSMD.LYZ.NS (ISC-enriched organoids [1]; [7]): −0.048; SSMD.LYZ.NS (ISC-enriched organoids [1]; [8]): −0.383; Z.LYZ.S (ISC-enriched organoids [2]; [5]): 0.584; Z.LYZ.S (ISC-enriched organoids [2]; [6]): 0.627; Z.LYZ.S (ISC-enriched organoids [2]; [7]): −0.225; Z.LYZ.S (ISC-enriched organoids [2]; [8]): 0.499; SSMD.LYZ.S (ISC-enriched organoids [2]; [5]): 0.499; SSMD.LYZ.S (ISC-enriched organoids [2]; [6]): 0.539; SSMD.LYZ.S (ISC-enriched organoids [2]; [7]): −0.200; SSMD.LYZ.S (ISC-enriched organoids [2]; [8]): 0.322; SSMD.CTG (ISC-enriched organoids [3]; [5]): 0.200; SSMD.CTG (ISC-enriched organoids [3]; [6]): 0.606; SSMD.CTG (ISC-enriched organoids [3]; [7]): −0.025; SSMD.CTG (ISC-enriched organoids [3]; [8]): −0.715
HA14-1	0.121	1.052	0.137	1.195	0.154	1.345	0.132	1.151	0.190	0.316	0.170	0.149	0.534	1.276	0.526	1.255	0.554	1.323	0.388	0.926	SSMD.LYZ.NS (ISC-enriched organoids [1]; [5]): 1.056; SSMD.LYZ.NS (ISC-enriched organoids [1]; [6]): 1.013; SSMD.LYZ.NS (ISC-enriched organoids [1]; [7]): 1.483; SSMD.LYZ.NS (ISC-enriched organoids [1]; [8]): 0.640; Z.LYZ.S (ISC-enriched organoids [2]; [5]): 1.231; Z.LYZ.S (ISC-enriched organoids [2]; [6]): 2.041; Z.LYZ.S (ISC-enriched organoids [2]; [7]): 1.099; Z.LYZ.S (ISC-enriched organoids [2]; [8]): 0.964; SSMD.LYZ.S (ISC-enriched organoids [2]; [5]): 1.264; SSMD.LYZ.S (ISC-enriched organoids [2]; [6]): 1.052; SSMD.LYZ.S (ISC-enriched organoids [2]; [7]): 1.202; SSMD.LYZ.S (ISC-enriched organoids [2]; [8]): 0.449; SSMD.CTG (ISC-enriched organoids [3]; [5]): 1.389; SSMD.CTG (ISC-enriched organoids [3]; [6]): 1.961; SSMD.CTG (ISC-enriched organoids [3]; [7]): 2.075; SSMD.CTG (ISC-enriched organoids [3]; [8]): 1.289
CN(C)C(=O)c1ccc(S(=O)(=O)c2ccc(NC(=O)[C@@](C)(O)C(F)(F)F)c(Cl)c2)cc1 [AZD7545]																					Dose.FC.LYZ.NS (ISC-enriched organoids [1]; dose 0.08 uM, ENR+CD 6 days): 0.087 log 2 fold change; Z.LYZ.NS (ISC-enriched organoids [1]; [9]): 0.758; Dose.FC.LYZ.NS (ISC-enriched organoids [1]; dose 0.40 uM, ENR+CD 6 days): −0.028 log 2 fold change; Z.LYZ.NS (ISC-enriched organoids [1]; [10]): −0.245; Dose.FC.LYZ.NS (ISC-enriched organoids [1]; dose 2.00 uM, ENR+CD 6 days): −0.018 log 2 fold change; Z.LYZ.NS (ISC-enriched organoids [1]; [11]): −0.155; Dose.FC.LYZ.NS (ISC-enriched organoids [1]; dose 10.00 uM, ENR+CD 6 days): −0.051 log 2 fold change; Z.LYZ.NS (ISC-enriched organoids [1]; [12]): −0.441; Dose.FC.LYZ.S (ISC-enriched organoids [2]; dose 0.08 uM, ENR+CD 6 days): 0.111 log 2 fold change; Dose.FC.LYZ.S (ISC-enriched organoids [2]; dose 0.40 uM, ENR+CD 6 days): −0.017 log 2 fold change; Dose.FC.LYZ.S (ISC-enriched organoids [2]; dose 2.00 uM, ENR+CD 6 days): −0.148 log 2 fold change; Dose.FC.LYZ.S (ISC-enriched organoids [2]; dose 10.00 uM, ENR+CD 6 days): −0.104 log 2 fold change; Dose.FC.CTG (ISC-enriched organoids [3]; dose 0.08 uM, ENR+CD 6 days): −0.334 log 2 fold change; Z.CTG (ISC-enriched organoids [3]; [9]): −0.798; Dose.FC.CTG (ISC-enriched organoids [3]; dose 0.40 uM, ENR+CD 6 days): −0.158 log 2 fold change; Z.CTG (ISC-enriched organoids [3]; [10]): −0.378; Dose.FC.CTG (ISC-enriched organoids [3]; dose 2.00 uM, ENR+CD 6 days): −0.255 log 2 fold change; Z.CTG (ISC-enriched organoids [3]; [11]): −0.608; Dose.FC.CTG (ISC-enriched organoids [3]; dose 10.00 uM, ENR+CD 6 days): −0.350 log 2 fold change; Z.CTG (ISC-enriched organoids [3]; [12]): −0.836
Cc1cc(SCc2sc(-c3ccc(C(F)(F)F)c(F)c3)nc2C)ccc1OCC(=O)O [GW0742]	0.052	0.454	0.045	0.390	0.026	0.231	−0.152	−1.322	0.048	0.106	0.014	−0.183	−0.751	−1.794	−0.489	−1.167	−0.249	−0.596	−0.451	−1.078	
